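Dose response: 5 concentrations. Exposure: 48 h. Format: 96-well plates. Endpoint: linear interpolation; highest concentration if not reached. Here, GI50 denotes the concentration required for 50% inhibition of growth. The concentration for full growth arrest is given as TGI.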
Key:
Assay in all cases: inhibition of tumour cell growth, NCI panel, 48 h
[1] = tested on: SNB-19 CNS
[2] = tested on: NCI-H522 lung
[3] = tested on: CAKI-1 renal
[4] = tested on: SF-295 CNS
[5] = tested on: T-47D breast
[6] = tested on: HCC-2998 colon
[7] = tested on: EKVX NSCLC
[8] = tested on: SF-539 CNS
[9] = tested on: SF-268 CNS
[10] = tested on: RPMI-8226 leukemia

Nc1ccccc1C#C/C=C\C#Cc1ccccc1N
GI50 [1]: 48.9 µM
TGI [1]: > 100 µM
GI50 [2]: 16.3 µM
TGI [2]: 44.5 µM
GI50 [3]: 6.86 µM
TGI [3]: 39 µM
GI50 [4]: 7.71 µM
TGI [4]: 25.4 µM
GI50 [5]: 26.9 µM
TGI [5]: > 100 µM
GI50 [6]: 0.0333 µM
TGI [6]: 24.4 µM
GI50 [7]: 17 µM
TGI [7]: 69.5 µM
GI50 [8]: 10.1 µM
TGI [8]: 26.6 µM
GI50 [9]: 10.7 µM
TGI [9]: 37.9 µM

COCC[C@H]1CCC/C=C/[C@@H]2C[C@H](O)C[C@H]2[C@H](O)/C=C/C(=O)O1
GI50 [1]: 0.191 µM
TGI [1]: > 100 µM
GI50 [2]: 0.21 µM
TGI [2]: 0.557 µM
GI50 [3]: 0.36 µM
GI50 [4]: 0.0796 µM
TGI [4]: > 100 µM
GI50 [10]: 0.284 µM
GI50 [6]: 0.079 µM
GI50 [7]: 0.114 µM
TGI [7]: > 100 µM
GI50 [8]: 0.213 µM
TGI [8]: > 100 µM
GI50 [9]: 0.0488 µM
TGI [9]: > 100 µM

O=C1C2C3C=C4c5ccccc5N(c5ccccc5)C4(C2C(=O)N1c1ccc([N+](=O)[O-])cc1)[C@H]1C(=O)N(c2ccc([N+](=O)[O-])cc2)C(=O)[C@@H]31 (stereo partly drawn)
TGI [1]: > 100 µM
TGI [2]: > 100 µM
TGI [3]: > 100 µM
TGI [4]: > 100 µM
TGI [10]: > 100 µM
TGI [6]: > 100 µM
TGI [7]: > 100 µM
TGI [8]: > 100 µM
TGI [9]: > 100 µM

COc1ccc(-c2cc(-c3cc(C)cc(Br)c3O)no2)cc1
TGI [1]: 58 µM
TGI [2]: 30.2 µM
TGI [3]: 24 µM
TGI [4]: 14.4 µM
TGI [10]: > 100 µM
TGI [5]: 34 µM
TGI [7]: 78.3 µM
TGI [8]: 25 µM
TGI [9]: 22.8 µM

CN(C)CCC1(C2=CCCC2)CC/C(=C\c2ccc(Cl)cc2)C1=O (stereo not drawn)
TGI [1]: 24.1 µM
TGI [2]: 18.8 µM
TGI [3]: 19.2 µM
TGI [4]: 20.8 µM
TGI [10]: 22.4 µM
TGI [6]: 20.2 µM
TGI [7]: 18.8 µM
TGI [8]: 25.7 µM
TGI [9]: 26.1 µM

Cn1cc(C2(C)CC(C)(C)c3c2n(C)c2ccccc32)c2ccccc21 (stereo not drawn)
TGI [1]: > 100 µM
TGI [2]: > 100 µM
TGI [3]: > 100 µM
TGI [4]: > 100 µM
TGI [10]: > 100 µM
TGI [6]: > 100 µM
TGI [7]: > 100 µM
TGI [8]: > 100 µM
TGI [9]: > 100 µM

CCCCNC1CCCCC[C@H]1O (stereo partly drawn)
TGI [1]: > 100 µM
TGI [2]: > 100 µM
TGI [3]: > 100 µM
TGI [4]: > 100 µM
TGI [10]: > 100 µM
TGI [6]: > 100 µM
TGI [7]: > 100 µM
TGI [8]: > 100 µM
TGI [9]: > 100 µM

COc1ccc(C(=O)c2cc(C)c(OC)c(C)c2)cc1OC(=O)CCl
GI50 [1]: < 0.01 µM
TGI [1]: > 100 µM
GI50 [2]: < 0.01 µM
TGI [2]: < 0.01 µM
GI50 [4]: < 0.0229 µM
TGI [4]: > 86 µM
GI50 [10]: < 0.01 µM
TGI [10]: 25.3 µM
GI50 [5]: 10.5 µM
TGI [5]: 67.9 µM
GI50 [6]: 0.0391 µM
TGI [6]: > 79.2 µM
GI50 [7]: 0.0928 µM
TGI [7]: > 100 µM
GI50 [8]: < 0.01 µM
TGI [8]: < 0.01 µM
GI50 [9]: < 0.011 µM
TGI [9]: > 100 µM

C=C1C(=O)O[C@H]2[C@H]1CC/C(COC(=O)NCCCCNC(=O)OC/C1=C/CC[C@@]3(C)O[C@H]3[C@H]3OC(=O)C(=C)[C@@H]3CC1)=C\CC[C@@]1(C)O[C@@H]21
GI50 [2]: 0.167 µM
TGI [2]: 0.375 µM
GI50 [3]: 10.8 µM
TGI [3]: 23 µM
GI50 [4]: 13 µM
TGI [4]: 27.4 µM
GI50 [10]: 0.547 µM
TGI [10]: 3.08 µM
GI50 [5]: 1.51 µM
TGI [5]: 4.17 µM
GI50 [6]: 2.35 µM
TGI [6]: 4.78 µM
GI50 [7]: 3.69 µM
TGI [7]: 13.5 µM
GI50 [8]: 1.55 µM
TGI [8]: 3.71 µM
GI50 [9]: 3.18 µM
TGI [9]: 12.6 µM

CN(Cc1ccccc1)C(=O)c1ccccc1C(=O)O
TGI [1]: > 100 µM
TGI [2]: > 100 µM
TGI [3]: > 100 µM
TGI [4]: > 100 µM
TGI [10]: > 100 µM
TGI [6]: > 100 µM
TGI [7]: > 100 µM
TGI [8]: > 100 µM
TGI [9]: > 100 µM

Source: PubChem BioAssay (NCI)
